Experimental data published in ChEMBL document CHEMBL3046874, “Synthesis and biological evaluation of chalcones and acetyl pyrazoline derivatives comprising furan nucleus as an antitubercular agents” (2012).

Key:
Assay type in all cases: functional
[1] = system: Mycobacterium tuberculosis; test: Growth inhibition of Mycobacterium tuberculosis H37Rv at 6.25 ug/ml by radiometric anlaysis; settings: read-out: GI
Aspergillus niger = test: Antifungal activity against Aspergillus niger ATCC 9029 after 7 days by agar plate method
Proteus vulgaris = test: Antibacterial activity against Proteus vulgaris ATCC 29905 after 24 hr by agar well diffusion method
Escherichia coli = test: Antibacterial activity against Escherichia coli ATCC 25922 after 24 hr by agar well diffusion method
Priestia megaterium = test: Antibacterial activity against Bacillus megaterium ATCC 14518 after 24 hr by agar well diffusion method
Staphylococcus aureus = test: Antibacterial activity against Staphylococcus aureus ATCC 25923 after 24 hr by agar well diffusion method
[2] = system: Mycobacterium tuberculosis; test: Growth inhibition of Mycobacterium tuberculosis H37Rv at 0.25 ug/ml by radiometric anlaysis; settings: read-out: GI

Row | SMILES | inhibition of growth at 6.25 µg/mL [1] [%] | diameter of the inhibition zone (DIZ) (Aspergillus niger) [mm] | inhibition zone (IZ) (Proteus vulgaris) [mm] | inhibition zone (IZ) (Escherichia coli) [mm] | inhibition zone (IZ) (Priestia megaterium) [mm] | inhibition zone (IZ) (Staphylococcus aureus) [mm] | inhibition of growth at 0.25 µg/mL [2] [%]
1 | CC(=O)N1N=C(c2cccc([N+](=O)[O-])c2)CC1c1ccc(-c2ccc(Cl)c(Cl)c2)o1 (configuration not stated) | 6 | 17 | 13 | 17 | 13 | 14 | 
2 | CC(=O)N1N=C(c2ccc([N+](=O)[O-])cc2)CC1c1ccc(-c2ccc(Cl)c(Cl)c2)o1 (configuration not stated) | 19 | 13 | 14 | 14 | 16 | 12 | 
3 | Cc1ccc(C(=O)/C=C/c2ccc(-c3ccc(Cl)c(Cl)c3)o2)cc1 |  | 13 | 14 | 19 | 22 | 13 | 
4 | O=C(/C=C/c1ccc(-c2ccc(Cl)c(Cl)c2)o1)c1cccc([N+](=O)[O-])c1 |  | 17 | 17 | 11 | 19 | 16 | 
5 | O=C(/C=C/c1ccc(-c2ccc(Cl)c(Cl)c2)o1)c1ccc([N+](=O)[O-])cc1 |  | 19 | 15 | 12 | 11 | 17 | 
6 | CC(=O)N1N=C(c2ccccc2)CC1c1ccc(-c2ccc(Cl)c(Cl)c2)o1 (configuration not stated) | 0 | 13 | 17 | 18 | 17 | 20 | 
7 | CC(=O)N1N=C(c2cccc(N)c2)CC1c1ccc(-c2ccc(Cl)c(Cl)c2)o1 (configuration not stated) | 4 | 17 | 15 | 15 | 14 | 13 | 
8 | CC(=O)N1N=C(c2ccc(N)cc2)CC1c1ccc(-c2ccc(Cl)c(Cl)c2)o1 (configuration not stated) | 74 | 19 | 12 | 17 | 17 | 17 | 
9 | CC(=O)N1N=C(c2ccc(Br)cc2)CC1c1ccc(-c2ccc(Cl)c(Cl)c2)o1 (configuration not stated) | 6 | 18 | 19 | 11 | 20 | 12 | 
10 | CC(=O)N1N=C(c2ccc(Cl)cc2)CC1c1ccc(-c2ccc(Cl)c(Cl)c2)o1 (configuration not stated) | 17 | 21 | 18 | 19 | 21 | 16 | 
11 | CC(=O)N1N=C(c2ccc(F)cc2)CC1c1ccc(-c2ccc(Cl)c(Cl)c2)o1 (configuration not stated) | 1 | 17 | 13 | 12 | 13 | 13 | 
12 | CC(=O)N1N=C(c2ccccc2O)CC1c1ccc(-c2ccc(Cl)c(Cl)c2)o1 (configuration not stated) | 11 | 15 | 11 | 13 | 18 | 16 | 
13 | COc1ccc(C2=NN(C(C)=O)C(c3ccc(-c4ccc(Cl)c(Cl)c4)o3)C2)cc1 (configuration not stated) | 0 | 19 | 14 | 20 | 12 | 19 | 
14 | CC(=O)N1N=C(c2ccc(C)cc2)CC1c1ccc(-c2ccc(Cl)c(Cl)c2)o1 (configuration not stated) | 0 | 20 | 19 | 12 | 19 | 21 | 
15 | O=C(/C=C/c1ccc(-c2ccc(Cl)c(Cl)c2)o1)c1ccccc1 |  | 19 | 15 | 19 | 20 | 14 | 
16 | Nc1cccc(C(=O)/C=C/c2ccc(-c3ccc(Cl)c(Cl)c3)o2)c1 |  | 17 | 17 | 16 | 14 | 19 | 
17 | Nc1ccc(C(=O)/C=C/c2ccc(-c3ccc(Cl)c(Cl)c3)o2)cc1 |  | 18 | 12 | 13 | 17 | 12 | 
18 | O=C(/C=C/c1ccc(-c2ccc(Cl)c(Cl)c2)o1)c1ccc(Br)cc1 |  | 21 | 16 | 20 | 21 | 19 | 
19 | O=C(/C=C/c1ccc(-c2ccc(Cl)c(Cl)c2)o1)c1ccc(Cl)cc1 |  | 14 | 15 | 14 | 15 | 20 | 
20 | O=C(/C=C/c1ccc(-c2ccc(Cl)c(Cl)c2)o1)c1ccc(F)cc1 |  | 14 | 14 | 16 | 17 | 12 | 
21 | O=C(/C=C/c1ccc(-c2ccc(Cl)c(Cl)c2)o1)c1ccccc1O |  | 18 | 11 | 14 | 12 | 16 | 
22 | COc1ccc(C(=O)/C=C/c2ccc(-c3ccc(Cl)c(Cl)c3)o2)cc1 |  | 19 | 19 | 12 | 13 | 20 | 
23 | CC1(C)S[C@@H]2[C@H](NC(=O)[C@H](N)c3ccc(O)cc3)C(=O)N2[C@H]1C(=O)O [AMOXICILLIN] |  | 0 | 20 | 18 | 24 | 22 | 
24 | CC1(C)S[C@@H]2[C@H](NC(=O)[C@H](N)c3ccccc3)C(=O)N2[C@H]1C(=O)O [AMPICILLIN] |  | 0 | 17 | 19 | 22 | 20 | 
25 | COC1=CC(=O)C[C@@H](C)[C@]12Oc1c(Cl)c(OC)cc(OC)c1C2=O [GRISEOFULVIN] |  | 26 | 0 | 0 | 0 | 0 | 
26 | CCn1cc(C(=O)O)c(=O)c2cc(F)c(N3CCNCC3)cc21 [NORFLOXACIN] |  | 0 | 21 | 20 | 23 | 19 | 
27 | CC1(C)S[C@@H]2[C@H](NC(=O)Cc3ccccc3)C(=O)N2[C@H]1C(=O)O [PENICILLIN G] |  | 0 | 23 | 22 | 25 | 24 | 
28 | CO[C@H]1/C=C/O[C@@]2(C)Oc3c(C)c(O)c4c(O)c(c(/C=N/N5CCN(C)CC5)c(O)c4c3C2=O)NC(=O)/C(C)=C\C=C\[C@H](C)[C@H](O)[C@@H](C)[C@@H](O)[C@@H](C)[C@H](OC(C)=O)[C@@H]1C [RIFAMPIN] |  |  |  |  |  |  | 98
